# Test results: the supplement of paper PMC12137928
# Counter-ions that a name gives are not always drawn.
# Legend:
# [1] = test system: HCT116; assay: efficacy (maximum % inhibition of viability vs DMSO); higher = more cytotoxic; conditions: 72 h
# In short: (§1)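 For IC50 and maximal efficacy, four-parameter Hill fits were used. Input values were CellTiter-Glo luminescence from HCT116 cells seeded at 250 per well in 1536-well plates, normalized to vehicle (0%) and positive control (-100%). Pattern correction followed normalization.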
# [2] = test system: HCT116; conditions: 72 h
# In short: as §1
Compound,efficacy ([1]; ICRF193 0 nM) [%],efficacy ([1]; ICRF193 200 nM) [%],IC50 cell viability ([2]; ICRF193 0 nM) [µM],IC50 cell viability ([2]; ICRF193 200 nM) [µM]
C=C1/C(=C\C=C2/CCC[C@]3(C)[C@@H]([C@H](C)CC[C@@H](O)C(C)C)CC[C@@H]23)C[C@@H](O)C[C@@H]1O [Tacalcitol],49.2,53.2,23.1,20.6
c1ccc(-c2ccc(C(c3ccccc3)n3ccnc3)cc2)cc1 (stereo unspecified) [Bifonazole],75.7,75.2,25.9,16.4
CCCSS/C(CCO)=C(/C)N(C=O)Cc1cnc(C)nc1N [Prosultiamine],,43.7,> 45.8,29.1
O=C(Nc1ccc([N+](=O)[O-])cc1Cl)c1cc(Cl)ccc1O [Niclosamide],88.5,82.8,0.712,0.712
CCOC(=O)O[C@]1(C(=O)COC(=O)CC)CC[C@H]2[C@@H]3CCC4=CC(=O)C=C[C@]4(C)[C@H]3[C@@H](O)C[C@@]21C [PREDNICARBATE],108,93.8,16.4,29.1
Cc1ccc(-c2cc(C(F)(F)F)nn2-c2ccc(S(N)(=O)=O)cc2)cc1 [Celecoxib],47.1,58.1,18.3,18.3
Clc1ccc(C(Cn2ccnc2)OCc2c(Cl)cccc2Cl)c(Cl)c1 (stereo unspecified) [Isoconazole nitrate],87.5,82.6,25.9,18.3
CC(=O)[C@H]1CC[C@H]2[C@@H]3CCC4=CC(=O)CC[C@]4(C)[C@H]3CC[C@]12C [Progesterone],43.3,51.2,29.1,18.3
O=C(NC(=O)c1c(F)cccc1F)Nc1cc(Cl)c(OC(F)(F)C(F)C(F)(F)F)cc1Cl (stereo unspecified) [Lufenuron],,41.2,> 45.8,18.3
Clc1ccc(COC(Cn2ccnc2)c2ccc(Cl)cc2Cl)cc1 (stereo unspecified) [Econazole nitrate],90.3,96,20.6,20.6
O=C(O)c1cccc(-c2noc(-c3ccccc3F)n2)c1 [PTC-124],,46.5,> 45.8,10.3
CC(=O)O[C@H]1C[C@H](O[C@H]2[C@@H](O)C[C@H](O[C@H]3[C@@H](O)C[C@H](O[C@H]4CC[C@@]5(C)[C@H](CC[C@@H]6[C@@H]5CC[C@]5(C)[C@@H](C7=CC(=O)OC7)CC[C@]65O)C4)O[C@@H]3C)O[C@@H]2C)O[C@H](C)[C@H]1O [Digitoxin 3'''-Acetate],75,87.8,0.231,0.116
CCOc1nc2cccc(C(=O)OC(C)OC(=O)OC3CCCCC3)c2n1Cc1ccc(-c2ccccc2-c2nn[nH]n2)cc1 (stereo unspecified) [Candesartan cilexetil (Atacand)],93,100,20.6,29.1
O=C(CCCCCCC(=O)Nc1ccccc1)NO [Vorinostat (SAHA)],109,101,3.66,2.31
COc1cc2nc(N3CCN(C(=O)C4COc5ccccc5O4)CC3)nc(N)c2cc1OC (stereo unspecified) [Doxazosin mesylate],106,95.6,29.1,18.3
CCCCC(=O)O [Valeric acid],,62,> 45.8,29.1
CN(C)c1ccc(C(=C2C=CC(=[N+](C)C)C=C2)c2ccc(N(C)C)cc2)cc1 [Methylrosaniline chloride],89.5,90.4,0.326,0.164
NC(=O)C1(N2CCCCC2)CCN(CCCN2c3ccccc3CCc3ccccc32)CC1 [Carpipramine Dihydrochloride],115,100,23.1,20.6
O=c1[nH]c(=O)n([C@H]2C[C@H](O)[C@@H](CO)O2)cc1F [Floxuridine],49.1,43,2.91,1.16
CCc1c2c(nc3ccc(OC(=O)N4CCC(N5CCCCC5)CC4)cc13)-c1cc3c(c(=O)n1C2)COC(=O)[C@]3(O)CC [Irinotecan],79.8,102,13,23.1
